Data taken from US9302999B2, “Substituted triazoles as herbicides” (E. I. DU PONT DE NEMOURS AND COMPANY, priority 2012, dated 2016).

Columns and labels:
Type in all cases: in vivo
[1] = tested on: pigweed (Amaranthus retroflexus); experiment: Test A pre-/postemergence: pigweed
How it was run: (§1)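 Compounds, formulated with surfactant in non-phytotoxic solvent, were applied as a directed soil spray preemergence and as postemergence sprays to 2–10 cm, one- to two-leaf seedlings grown in loam soil blended with sand; visual injury, 0–100, assessed ~10 days post-treatment against untreated controls.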

[2] = tested on: foxtail, giant (giant foxtail, Setaria faberii); experiment: Test A pre-/postemergence: foxtail, giant
How it was run: as §1

[3] = tested on: ducksalad (Heteranthera limosa); experiment: Test B flooded paddy: ducksalad; conditions: Flood; 250 g ai/ha; applied to paddy water at 2-leaf stage; visually evaluated after 13 to 15 days
How it was run: (§2)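 Plants were grown to the 2-leaf stage and pots flooded to 3 cm above soil. Compounds were applied directly into the paddy water, with depth kept for the test. After 13–15 days in greenhouse, response was rated visually against controls on a 0 (no effect) to 100 (complete control) scale.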

[4] = tested on: wheat (Triticum aestivum); experiment: Test A pre-/postemergence: wheat
How it was run: as §1

[5] = tested on: barnyardgrass (Echinochloa crus-galli); experiment: Test A pre-/postemergence: barnyardgrass
How it was run: as §1

corn (Zea mays) = experiment: Test A pre-/postemergence: corn
How it was run: as §1

[6] = tested on: velvetleaf (Abutilon theophrasti); experiment: Test A pre-/postemergence: velvetleaf
How it was run: as §1

[7] = tested on: morningglory (Ipomoea spp.); experiment: Test A pre-/postemergence: morningglory
How it was run: as §1

[8] = tested on: sedge, umbrella (small-flower umbrella sedge Cyperus difformis); experiment: Test B flooded paddy: sedge, umbrella; conditions: Flood; 250 g ai/ha; applied to paddy water at 2-leaf stage; visually evaluated after 13 to 15 days
How it was run: as §2

[9] = tested on: crabgrass, large (large crabgrass, Digitaria sanguinalis); experiment: Test A pre-/postemergence: crabgrass, large
How it was run: as §1

rice (Oryza sativa) = experiment: Test B flooded paddy: rice; conditions: Flood; 250 g ai/ha; applied to paddy water at 2-leaf stage; visually evaluated after 13 to 15 days
How it was run: as §2

[10] = tested on: barnyardgrass (Echinochloa crus-galli); experiment: Test B flooded paddy: barnyardgrass; conditions: Flood; 250 g ai/ha; applied to paddy water at 2-leaf stage; visually evaluated after 13 to 15 days
How it was run: as §2

[11] = Postemergence, 125 g ai/ha, 0 to 100 scale, 0 is no effect, 100 is complete control
[12] = Postemergence, 500 g ai/ha, visual rating on 0 to 100 scale (0 no effect, 100 complete control), approximately ten days
[13] = Preemergence, 125 g ai/ha, 0 to 100 scale (0 no effect, 100 complete control)
[14] = Preemergence, 500 g ai/ha, 0 to 100 scale, 0 is no effect, 100 is complete control
[15] = Preemergence, 125 g ai/ha, 0 to 100 scale where 0 is no effect and 100 is complete control
[16] = Preemergence, 500 g ai/ha, 0 to 100 scale (0 no effect, 100 complete control)

## Cc1cc(Oc2nn(-c3ccc(F)cc3)nc2C)ccc1F [Compound 86]
[1]; [11]
  Pigweed plant response rating: 0
[1]; [12]
  Pigweed plant response rating: 0
[1]; [13]
  Plant response rating, Pigweed: 0
[1]; [14]
  Plant response rating, Pigweed: 0
[2]; [11]
  Foxtail, Giant plant response rating: 0
[2]; [12]
  Foxtail, Giant plant response rating: 0
[2]; [13]
  Plant response rating, Foxtail, Giant: 0
[2]; [14]
  Plant response rating, Foxtail, Giant: 0
[3]
  Plant response rating, Ducksalad (0 to 100 scale, 0 is no effect, 100 is complete control): 0
[4]; [11]
  Wheat plant response rating: 0
[4]; [12]
  Wheat plant response rating: 0
[4]; [13]
  Plant response rating, Wheat: 0
[4]; [14]
  Plant response rating, Wheat: 0
[5]; [11]
  Barnyardgrass plant response rating: 0
[5]; [12]
  Barnyardgrass plant response rating: 0
[5]; [13]
  Plant response rating, Barnyardgrass: 0
[5]; [14]
  Plant response rating, Barnyardgrass: 0
Corn (Zea mays); [11]
  Corn plant response rating: 0
Corn (Zea mays); [12]
  Corn plant response rating: 0
Corn (Zea mays); [13]
  Plant response rating, Corn: 0
Corn (Zea mays); [14]
  Plant response rating, Corn: 0
[6]; [11]
  Velvetleaf plant response rating: 0
[6]; [12]
  Velvetleaf plant response rating: 0
[6]; [13]
  Plant response rating, Velvetleaf: 0
[6]; [14]
  Plant response rating, Velvetleaf: 0
[7]; [11]
  Morningglory plant response rating: 0
[7]; [12]
  Morningglory plant response rating: 0
[7]; [13]
  Plant response rating, Morningglory: 0
[7]; [14]
  Plant response rating, Morningglory: 0
[8]
  Plant response rating, Sedge, Umbrella (0 to 100 scale, 0 is no effect, 100 is complete control): 50
[9]; [11]
  Crabgrass, Large plant response rating: 0
[9]; [12]
  Crabgrass, Large plant response rating: 0
[9]; [13]
  Plant response rating, Crabgrass, Large: 0
[9]; [14]
  Plant response rating, Crabgrass, Large: 0
Rice (Oryza sativa)
  Plant response rating, Rice (0 to 100 scale, 0 is no effect, 100 is complete control): 0
[10]
  Plant response rating, Barnyardgrass (0 to 100 scale, 0 is no effect, 100 is complete control): 0

## Cc1nn(-c2ccccc2)nc1C(=O)c1cccc(C(F)(F)F)c1 [Compound 43]
[1]; [11]
  Pigweed plant response rating: 50
[1]; [12]
  Pigweed plant response rating: 70
[1]; [13]
  Plant response rating, Pigweed: 50
[1]; [14]
  Plant response rating, Pigweed: 60
[2]; [11]
  Foxtail, Giant plant response rating: 20
[2]; [12]
  Foxtail, Giant plant response rating: 30
[2]; [13]
  Plant response rating, Foxtail, Giant: 20
[2]; [14]
  Plant response rating, Foxtail, Giant: 90
[3]
  Plant response rating, Ducksalad (0 to 100 scale, 0 is no effect, 100 is complete control): 85
[4]; [11]
  Wheat plant response rating: 0
[4]; [12]
  Wheat plant response rating: 30
[4]; [13]
  Plant response rating, Wheat: 0
[4]; [14]
  Plant response rating, Wheat: 0
[5]; [11]
  Barnyardgrass plant response rating: 10
[5]; [12]
  Barnyardgrass plant response rating: 20
[5]; [13]
  Plant response rating, Barnyardgrass: 0
[5]; [14]
  Plant response rating, Barnyardgrass: 20
Corn (Zea mays); [11]
  Corn plant response rating: 20
Corn (Zea mays); [12]
  Corn plant response rating: 30
Corn (Zea mays); [13]
  Plant response rating, Corn: 0
Corn (Zea mays); [14]
  Plant response rating, Corn: 10
[6]; [11]
  Velvetleaf plant response rating: 20
[6]; [12]
  Velvetleaf plant response rating: 20
[6]; [13]
  Plant response rating, Velvetleaf: 0
[6]; [14]
  Plant response rating, Velvetleaf: 0
[7]; [11]
  Morningglory plant response rating: 0
[7]; [12]
  Morningglory plant response rating: 40
[8]
  Plant response rating, Sedge, Umbrella (0 to 100 scale, 0 is no effect, 100 is complete control): 100
[9]; [11]
  Crabgrass, Large plant response rating: 30
[9]; [12]
  Crabgrass, Large plant response rating: 40
[9]; [13]
  Plant response rating, Crabgrass, Large: 30
[9]; [14]
  Plant response rating, Crabgrass, Large: 80
Rice (Oryza sativa)
  Plant response rating, Rice (0 to 100 scale, 0 is no effect, 100 is complete control): 0
[10]
  Plant response rating, Barnyardgrass (0 to 100 scale, 0 is no effect, 100 is complete control): 0

## Cc1nn(-c2ccc(F)cc2)nc1Oc1ccc(F)c(C(F)(F)F)c1 [Compound 56]
[1]; [11]
  Pigweed plant response rating: 100
[1]; [12]
  Pigweed plant response rating: 100
[1]; [13]
  Plant response rating, Pigweed: 30
[1]; [14]
  Plant response rating, Pigweed: 90
[2]; [11]
  Foxtail, Giant plant response rating: 20
[2]; [12]
  Foxtail, Giant plant response rating: 80
[2]; [13]
  Plant response rating, Foxtail, Giant: 30
[2]; [14]
  Plant response rating, Foxtail, Giant: 100
[3]
  Plant response rating, Ducksalad (0 to 100 scale, 0 is no effect, 100 is complete control): 80
[4]; [11]
  Wheat plant response rating: 10
[4]; [12]
  Wheat plant response rating: 20
[4]; [13]
  Plant response rating, Wheat: 0
[4]; [14]
  Plant response rating, Wheat: 10
[5]; [11]
  Barnyardgrass plant response rating: 10
[5]; [12]
  Barnyardgrass plant response rating: 30
[5]; [13]
  Plant response rating, Barnyardgrass: 0
[5]; [14]
  Plant response rating, Barnyardgrass: 80
Corn (Zea mays); [11]
  Corn plant response rating: 10
Corn (Zea mays); [12]
  Corn plant response rating: 20
Corn (Zea mays); [13]
  Plant response rating, Corn: 0
Corn (Zea mays); [14]
  Plant response rating, Corn: 10
[6]; [11]
  Velvetleaf plant response rating: 40
[6]; [12]
  Velvetleaf plant response rating: 90
[6]; [13]
  Plant response rating, Velvetleaf: 0
[6]; [14]
  Plant response rating, Velvetleaf: 10
[7]; [13]
  Plant response rating, Morningglory: 0
[7]; [14]
  Plant response rating, Morningglory: 10
[8]
  Plant response rating, Sedge, Umbrella (0 to 100 scale, 0 is no effect, 100 is complete control): 80
[9]; [11]
  Crabgrass, Large plant response rating: 50
[9]; [12]
  Crabgrass, Large plant response rating: 80
[9]; [13]
  Plant response rating, Crabgrass, Large: 90
[9]; [14]
  Plant response rating, Crabgrass, Large: 100
Rice (Oryza sativa)
  Plant response rating, Rice (0 to 100 scale, 0 is no effect, 100 is complete control): 40
[10]
  Plant response rating, Barnyardgrass (0 to 100 scale, 0 is no effect, 100 is complete control): 30

## CC(C)c1nn(-c2ccc(F)cc2)nc1Cc1ccnc(C(F)(F)F)c1 [Compound 151]
[1]; [11]
  Plant response rating, Pigweed: 60
[1]; [12]
  Pigweed plant response rating: 80
[1]; [15]
  Plant response rating, Pigweed: 10
[1]; [16]
  Plant response rating, Pigweed: 60
[2]; [11]
  Plant response rating, Foxtail, Giant: 10
[2]; [12]
  Foxtail, Giant plant response rating: 30
[2]; [15]
  Plant response rating, Foxtail, Giant: 0
[2]; [16]
  Plant response rating, Foxtail, Giant: 20
[3]
  Plant response rating, Ducksalad (0 to 100 scale, 0 is no effect, 100 is complete control): 0
[4]; [11]
  Plant response rating, Wheat: 0
[4]; [12]
  Wheat plant response rating: 0
[4]; [15]
  Plant response rating, Wheat: 0
[4]; [16]
  Plant response rating, Wheat: 0
[5]; [11]
  Plant response rating, Barnyardgrass: 10
[5]; [12]
  Barnyardgrass plant response rating: 20
[5]; [15]
  Plant response rating, Barnyardgrass: 0
[5]; [16]
  Plant response rating, Barnyardgrass: 0
Corn (Zea mays); [11]
  Plant response rating, Corn: 10
Corn (Zea mays); [12]
  Corn plant response rating: 20
Corn (Zea mays); [15]
  Plant response rating, Corn: 0
Corn (Zea mays); [16]
  Plant response rating, Corn: 0
[6]; [11]
  Plant response rating, Velvetleaf: 30
[6]; [12]
  Velvetleaf plant response rating: 50
[6]; [15]
  Plant response rating, Velvetleaf: 0
[6]; [16]
  Plant response rating, Velvetleaf: 0
[7]; [11]
  Plant response rating, Morningglory: 40
[7]; [12]
  Morningglory plant response rating: 70
[7]; [15]
  Plant response rating, Morningglory: 0
[7]; [16]
  Plant response rating, Morningglory: 0
[8]
  Plant response rating, Sedge, Umbrella (0 to 100 scale, 0 is no effect, 100 is complete control): 0
[9]; [11]
  Plant response rating, Crabgrass, Large: 10
[9]; [12]
  Crabgrass, Large plant response rating: 30
[9]; [15]
  Plant response rating, Crabgrass, Large: 0
[9]; [16]
  Plant response rating, Crabgrass, Large: 10
Rice (Oryza sativa)
  Plant response rating, Rice (0 to 100 scale, 0 is no effect, 100 is complete control): 30
[10]
  Plant response rating, Barnyardgrass (0 to 100 scale, 0 is no effect, 100 is complete control): 0
